The values that follow come from PubChem BioAssay AID288 (DTP/NCI, 2004).

The assay has as its system BDF1 mice, M5076 sarcoma s.c., survival/tumor T/C. As to the kind of experiment: NCI In Vivo Anticancer Drug Screen. Data for tumor model Sarcoma M5076 (subcutaneous) in B6D2F1 (BDF1) mice. Here is the method:
The antitumor activity of compounds was measured in mice bearing transplantable tumors. Survival or tumor size were measured and the results are expressed as the measurement made in the treated group (T) divided by the measurement made in the vehicle treated control group (C). The tumor model used in this assay is Sarcoma M5076 (subcutaneous) in B6D2F1 (BDF1) mice

Setting [1] is: endpoint: median survival time, dose: 50.0 mg/kg/injection, schedule: Q01DX009 (ip), vehicle: saline with Tween-80, higher = longer survival.
Where [2] appears, read: endpoint: median survival time, dose: 100.0 mg/kg/injection, schedule: Q01DX009 (ip), vehicle: saline with Tween-80, higher = longer survival.
Where [3] appears, read: endpoint: median survival time, dose: 200.0 mg/kg/injection, schedule: Q01DX009 (ip), vehicle: saline with Tween-80, higher = longer survival.
Setting [4] is: endpoint: median tumor weight (est.), dose: 50.0 mg/kg/injection, schedule: Q01DX009 (ip), vehicle: saline with Tween-80, higher = larger tumour.
[5] abbreviates: endpoint: median tumor weight (est.), dose: 100.0 mg/kg/injection, schedule: Q01DX009 (ip), vehicle: saline with Tween-80, higher = larger tumour.
Where [6] appears, read: endpoint: median tumor weight (est.), dose: 200.0 mg/kg/injection, schedule: Q01DX009 (ip), vehicle: saline with Tween-80, higher = larger tumour.

“And” between values parts separate entries of the source, which are not always exact repeats. Identical values can stand only once. Results filed as inconclusive are left out. Numbered stars: 1 amine (or outer) side, 2 acyl side, 3 side chain; on linkers, the order of the positions; unused ones are H or OH. Bridge positions count the residues as written; N and C are the ends. Square brackets hold non-standard residues; d marks the D form. Peptide text beside a SMILES is read from it. I, II: the chains in the order shown. Actinocin(1to9) = Cc1c2oc3c(C)ccc(C(=O)[*:2])c3nc-2c(C(=O)[*:1])c(N)c1=O; NMeV = CN[CH](C(=O)O)C(C)C; Aze = O=C(O)[CH]1CCN1; Sar = CNCC(=O)O

For `Cc1c2oc3c(C)ccc(C(=O)NC4C(=O)NC(C(C)C)C(=O)N5CCCC5C(=O)N(C)CC(=O)N(C)C(C(C)C)C(=O)OC4C)c3nc-2c(C(=O)NC2C(=O)NC(C(C)C)C(=O)N3CCC3C(=O)N(C)CC(=O)N(C)C(C(C)C)C(=O)OC2C)c(N)c1=O` (configuration not stated) (I: TV[Aze][Sar][NMeV] / II: TVP[Sar][NMeV]; ester I:1-I:C, II:1-II:C; linker I:N-II:N via Actinocin(1to9); configuration not given here), the T/C was 112 % of control (endpoint: median tumor weight (est.), dose: 14.0 micrograms/kg/injection, schedule: Q02DX011 (ip), vehicle: saline, higher = larger tumour); 99 % of control (endpoint: median tumor weight (est.), dose: 23.3 micrograms/kg/injection, schedule: Q02DX011 (ip), vehicle: saline, higher = larger tumour); 87 % of control (endpoint: median tumor weight (est.), dose: 38.9 micrograms/kg/injection, schedule: Q02DX011 (ip), vehicle: saline, higher = larger tumour); 120 % of control (endpoint: median tumor weight (est.), dose: 64.8 micrograms/kg/injection, schedule: Q02DX011 (ip), vehicle: saline, higher = larger tumour); 64 % of control (endpoint: median tumor weight (est.), dose: 108.0 micrograms/kg/injection, schedule: Q02DX011 (ip), vehicle: saline, higher = larger tumour); 96 % of control (endpoint: median tumor weight (est.), dose: 180.0 micrograms/kg/injection, schedule: Q02DX011 (ip), vehicle: saline, higher = larger tumour). Besides, the T/C (endpoint: median tumor weight (est.), dose: 300.0 micrograms/kg/injection, schedule: Q02DX011 (ip), vehicle: saline, higher = larger tumour) was 59 % of control.

On to `NC(CSC(c1ccccc1)(c1ccccc1)c1ccccc1)C(=O)O` (configuration not stated), for which the T/C was 103 % of control (endpoint: mean tumor weight, dose: 17.5 mg/kg/injection, schedule: Q02DX011 (ip), vehicle: acid diluted with saline, higher = larger tumour); 71 % of control (endpoint: mean tumor weight, dose: 17.5 mg/kg/injection, schedule: Q02DX011 (ip), vehicle: saline, higher = larger tumour); 87 % of control (endpoint: mean tumor weight, dose: 35.0 mg/kg/injection, schedule: Q02DX011 (ip), vehicle: acid diluted with saline, higher = larger tumour); 53 % of control (endpoint: mean tumor weight, dose: 35.0 mg/kg/injection, schedule: Q02DX011 (ip), vehicle: saline, higher = larger tumour); 24 % of control (endpoint: mean tumor weight, dose: 70.0 mg/kg/injection, schedule: Q02DX011 (ip), vehicle: acid diluted with saline, higher = larger tumour); 37 % of control (endpoint: mean tumor weight, dose: 70.0 mg/kg/injection, schedule: Q02DX011 (ip), vehicle: saline, higher = larger tumour). Besides, the T/C runs as follows: (endpoint: median tumor weight (est.), dose: 17.5 mg/kg/injection, schedule: Q02DX011 (ip), vehicle: acid diluted with saline, higher = larger tumour) 490 % of control; (endpoint: median tumor weight (est.), dose: 17.5 mg/kg/injection, schedule: Q02DX011 (ip), vehicle: saline, higher = larger tumour) 65 % of control; (endpoint: median tumor weight (est.), dose: 35.0 mg/kg/injection, schedule: Q02DX011 (ip), vehicle: acid diluted with saline, higher = larger tumour) 336 % of control; (endpoint: median tumor weight (est.), dose: 35.0 mg/kg/injection, schedule: Q02DX011 (ip), vehicle: saline, higher = larger tumour) 49 % of control; (endpoint: median tumor weight (est.), dose: 70.0 mg/kg/injection, schedule: Q02DX011 (ip), vehicle: acid diluted with saline, higher = larger tumour) 293 % of control; (endpoint: median tumor weight (est.), dose: 70.0 mg/kg/injection, schedule: Q02DX011 (ip), vehicle: saline, higher = larger tumour) 5 % of control.

As for `COC(=O)c1csc(C2OC(CO)C(O)C2O)n1` (configuration not stated), the T/C was 98 % of control (endpoint: median survival time, dose: 50.0 mg/kg/injection, schedule: Q01DX009 (ip), vehicle: saline, higher = longer survival); 100 % of control (endpoint: median survival time, dose: 100.0 mg/kg/injection, schedule: Q01DX009 (ip), vehicle: saline, higher = longer survival); 100 % of control (endpoint: median survival time, dose: 200.0 mg/kg/injection, schedule: Q01DX009 (ip), vehicle: saline, higher = longer survival); 61 % of control (endpoint: median tumor weight (est.), dose: 50.0 mg/kg/injection, schedule: Q01DX009 (ip), vehicle: saline, higher = larger tumour); 77 % of control (endpoint: median tumor weight (est.), dose: 100.0 mg/kg/injection, schedule: Q01DX009 (ip), vehicle: saline, higher = larger tumour); 85 % of control (endpoint: median tumor weight (est.), dose: 200.0 mg/kg/injection, schedule: Q01DX009 (ip), vehicle: saline, higher = larger tumour).

In the case of `O=C1CC(=O)N(C2CCCCC2)C(=O)N1c1ccccc1S(=O)(=O)Oc1ccccc1`, the T/C under setting [1] was 94 % of control; the T/C under setting [2] was 90 % of control; the T/C under setting [3] was 100 % of control; the T/C under setting [4] is 111 % of control; the T/C under setting [5] was 56 % of control; the T/C under setting [6] is 96 % of control.

Take `O=C1CC(Cl)(CS(F)(F)(F)(F)F)O1` (configuration not stated): the T/C under setting [1] is 100 % of control and the T/C under setting [4] was 56 % of control.

With `O=c1[nH]c(=O)n([C@H]2CCCO2)cc1F`, the T/C runs as follows: (endpoint: mean tumor weight, dose: 50.0 mg/kg/injection, schedule: Q02DX011 (ip), vehicle: alkali diluted with saline, higher = larger tumour) 150 % of control; (endpoint: mean tumor weight, dose: 100.0 mg/kg/injection, schedule: Q02DX011 (ip), vehicle: alkali diluted with saline, higher = larger tumour) 93 % of control; (endpoint: mean tumor weight, dose: 200.0 mg/kg/injection, schedule: Q02DX011 (ip), vehicle: alkali diluted with saline, higher = larger tumour) 74 % of control.

As to `O=C1Nc2cnc(Cl)nc2Nc2ccccc21`, the T/C is, setting by setting: under setting [1], 97 % of control; under setting [2], 94 % of control; under setting [3], 95 % of control; under setting [4], 90 % of control; under setting [5], 75 % of control; under setting [6], 86 % of control.

Consider `C=C1C(O)C2OC3(CCC(/C=C/C(C)C4CC5(C)SC5C5(OC(CC(C)(O)C(=O)O)CCC5O)O4)O3)CCC2OC1C(O)CC(C)C1OC2(CCCCO2)CCC1C` (configuration not stated), for which the T/C is 101 % of control (endpoint: median survival time, dose: 1.25 micrograms/kg/injection, schedule: Q01DX009 (ip), vehicle: saline + alcohol, higher = longer survival); 96 % of control (endpoint: median survival time, dose: 2.5 micrograms/kg/injection, schedule: Q01DX009 (ip), vehicle: saline + alcohol, higher = longer survival); 108 % of control (endpoint: median survival time, dose: 5.0 micrograms/kg/injection, schedule: Q01DX009 (ip), vehicle: saline + alcohol, higher = longer survival); 96 % of control (endpoint: median survival time, dose: 10.0 micrograms/kg/injection, schedule: Q01DX009 (ip), vehicle: saline + alcohol, higher = longer survival); 107 % of control (endpoint: median tumor weight (est.), dose: 1.25 micrograms/kg/injection, schedule: Q01DX009 (ip), vehicle: saline + alcohol, higher = larger tumour); 77 % of control (endpoint: median tumor weight (est.), dose: 2.5 micrograms/kg/injection, schedule: Q01DX009 (ip), vehicle: saline + alcohol, higher = larger tumour). In addition, the T/C (endpoint: median tumor weight (est.), dose: 5.0 micrograms/kg/injection, schedule: Q01DX009 (ip), vehicle: saline + alcohol, higher = larger tumour) was 92 % of control.

Regarding `COc1cccc2c1C(=O)c1c(O)c3c(c(O)c1C2=O)C[C@@](O)(C(C)=O)C[C@@H]3OC1CC(N)C(O)C(C)O1` (some centres not stated), the T/C was 95 % of control (endpoint: median survival time, dose: 0.4 mg/kg/injection, schedule: Q02DX030 (ip), vehicle: saline, higher = longer survival); 106 % of control (endpoint: median survival time, dose: 0.4 mg/kg/injection, schedule: Q04DX006 (ip), vehicle: saline, higher = longer survival); 122 % of control (endpoint: median survival time, dose: 0.8 mg/kg/injection, schedule: Q02DX030 (ip), vehicle: saline, higher = longer survival); 104 % of control (endpoint: median survival time, dose: 1.6 mg/kg/injection, schedule: Q02DX030 (ip), vehicle: saline, higher = longer survival).

As for `Cc1c(N)nc([C@H](CC(N)=O)NC[C@H](N)C(N)=O)nc1C(=O)N[C@H](C(=O)N[C@H](C)[C@@H](O)[C@H](C)C(=O)N[C@H](C(=O)NCCc1nc(-c2nc(C(=O)NCCC[S+](C)C)cs2)cs1)[C@@H](C)O)C(OC1OC(CO)C(O)C(O)C1OC1OC(CO)C(O)C(OC(N)=O)C1O)c1cnc[nH]1` (some centres not stated), the T/C is, setting by setting: (endpoint: median survival time, dose: 1.6 mg/kg/injection, schedule: Q04DX009 (ip), vehicle: saline, higher = longer survival) 108 % of control; (endpoint: median survival time, dose: 3.2 mg/kg/injection, schedule: Q04DX009 (ip), vehicle: saline, higher = longer survival) 115 % of control.

With `O=c1[nH]cc(F)c(=O)[nH]1`, the T/C by setting is: (endpoint: median survival time, dose: 6.25 mg/kg/injection, schedule: Q04DX006 (ip), vehicle: saline, higher = longer survival) 105 % of control; (endpoint: median survival time, dose: 12.5 mg/kg/injection, schedule: Q02DX033 (ip), vehicle: saline, higher = longer survival) 101 % of control; (endpoint: median survival time, dose: 12.5 mg/kg/injection, schedule: Q04DX006 (ip), vehicle: saline, higher = longer survival) 100 % of control; (endpoint: median survival time, dose: 25.0 mg/kg/injection, schedule: Q02DX033 (ip), vehicle: saline, higher = longer survival) 105 % of control; (endpoint: median survival time, dose: 25.0 mg/kg/injection, schedule: Q04DX006 (ip), vehicle: saline, higher = longer survival) 108 % of control; (endpoint: median survival time, dose: 50.0 mg/kg/injection, schedule: Q04DX006 (ip), vehicle: saline, higher = longer survival) 105 % of control.

Consider `CCOC(=O)C(CC(C)C)NC(=O)C(Cc1ccc(N(CCCl)CCCl)cc1)NC(C)=O` (configuration not stated), for which the T/C is 111 % of control (endpoint: median survival time, dose: 8.0 mg/kg/injection, schedule: Q01DX009 (ip), vehicle: saline with Tween-80, higher = longer survival); 117 % of control and 122 % of control (endpoint: median survival time, dose: 16.0 mg/kg/injection, schedule: Q01DX009 (ip), vehicle: saline with Tween-80, higher = longer survival); 170 % of control (endpoint: median survival time, dose: 64.0 mg/kg/injection, schedule: Q01DX009 (ip), vehicle: saline with Tween-80, higher = longer survival); 61 % of control (endpoint: median tumor weight (est.), dose: 8.0 mg/kg/injection, schedule: Q01DX009 (ip), vehicle: saline with Tween-80, higher = larger tumour); 52 % of control (endpoint: median tumor weight (est.), dose: 16.0 mg/kg/injection, schedule: Q01DX009 (ip), vehicle: saline with Tween-80, higher = larger tumour); 16 % of control (endpoint: median tumor weight (est.), dose: 32.0 mg/kg/injection, schedule: Q01DX009 (ip), vehicle: saline with Tween-80, higher = larger tumour).
